# Data published in patent publication US10870635B2, “Compounds and their use as BACE1 inhibitors” (ALLGENESIS BIOTHERAPEUTICS, INC., priority 2015, dated 2020).
# Experiments:
# [1] = target: BACE1 (recombinant β-secretase enzyme) (Homo sapiens (Human), UniProt P56817); assay: AnaSpec BACE1 fluorescent assay (beta-secretase activity assay); type: biochemical
# Experimental: A BACE1 activity assay kit from AnaSpec (Fremont, Calif.) was used to determine the potency of the selected BACE1 inhibitors by AnaSpec BACE1 fluorescent assay. The recombinant β-secretase enzyme was diluted 1:200 in 1× assay buffer (1 part of 1× assay buffer and 1 part of TBS containing 0.1% Tween 20). The enzyme was added in a volume of 40 μl to each well of a black 96-well micro plate.
# The BACE1 inhibitors were serially diluted into DMSO from their 10 mM stock concentrations in DMSO. The serially diluted inhibitors were diluted 1:100 into 1× assay buffer in a 96-well polypropylene plate (assay dilution plate). The final concentration of the BACE1 inhibitor tested was 300 nM, 100 nM, 30 nM, 10 nM, 3 nM, 1 nM 0.3 nM, and 0.00 nM. Dose responses for inhibitors were run in duplicate.
# A volume of 10 μl of the inhibitor from the assay dilution plate, a control inhibitor LY2886721 or inhibitor vehicle was then added to each well of the black 96-well micro plate containing BACE1.
# To each well of the black 96-well micro plate, 50 μl of the β-secretase substrate (Hylite Fluor 488) diluted 1:100 using assay buffer was added. The reagents were mixed gently and the assay plate was placed into a POLARstar fluorescent plate reader with excitation wavelength set at 485 nm and the emission wavelength set at 520 nm. The plate reader was set to take readings every 5 minutes for up to 30 minutes or a 30 minute endpoint reading was used.
# An appropriate integrated first-order rate equation was used to fit the data accumulated over a 30-40 minute collection period.
# [2] = test system: Aβ38, Aβ40 and Aβ42 in CSF; assay: Efficacy study in monkeys: Aβ biomarkers in CSF after single oral administration; type: in vivo, cynomolgus monkeys; conditions: Monkey CSF
# From the text: Certain isoforms of amyloid β peptide (AR), such as Aβ338, Aβ340 and Aβ342 have been established as relevant biomarkers that reflect BACE1 activity and have been exploited to establish translational relationships between different cellular assays and animal models. In this efficacy study, mammals were used to assess amyloid β reduction with BACE1 inhibitors. In a clinical setting, plasma and cerebrospinal fluid (CSF) are the accessible compartments to measure soluble amyloid β levels to determine target profile. It is important to analyze plasma and CSF levels which relate to changes in brain amyloid β levels. The concentration of BACE1 inhibitors and their time-dependent reduction of plasma, CSF and brain amyloid β levels were investigated following intravenous and oral administrations of BACE1 inhibitors.
# a (ii). Formulation for PO administration: 5% (v/v) PEG400+95% (v/v) of 1% (w/v) methyl cellulose in water (the viscosity of methyl cellulose is 20 g/L, 20° C., cPa·s: 350.0-550.0). The test article solutions were prepared by dissolving the compound in PEG400 followed by the addition of the aqueous solution to the final volume.
# For the oral formulation of a BACE1 inhibitor in the monkey efficacy study (at the dose of 20 mg/kg with the concentration of 2 mg/ml)
# 1) Weighed […] of the selected BACE1 inhibitors into a clean vial;
# 2) Added 2.826 mL of PEG400 into the tube containing the compound. Then vortexed for 5 min and sonicated for 45 min;
# 3) Added 53.688 mL of 1% MC in water into the tube containing the compound. Then vortexed for 4 min and sonicated for 4 min; and
# 4) Adjusted the pH to the physiological value by using 1N NaOH.
# Several studies have shown that drug transport into the CNS may be more similar between humans and primates. […] To explore the mechanism of BACE1 compounds, the compounds were tested using this in vivo study. […] The monkey Aβ reduction study usually takes 3 weeks.
# The time-course profiles of neurodegeneration biomarkers were determined following single oral administration of the selected BACE1 inhibitors to male cynomolgus monkeys. Blood samples were collected from all animals via the saphenous vein or cephalic vein at 0 (pre-dose), 0.5, 1, 3, 6, 8, 12 and 24 hr post-dose into test tubes containing potassium ethylenediaminotetraacetic acid (K2EDTA). CSF samples were collected via a pre-implanted cannula at the foramina occipital magnum site at 0 (pre-dose), 3, 6, 12 and 24 hr post-dose.
# Plasma was separated from the blood by centrifugation at 4° C. and stored at −80° C. until analyzing. The biomarkers of Aβ38, Aβ40 and Aβ42 in CSF were quantified using Meso Scale Discovery (MSD) multiplex electrochemiluminescence immunoassay according to the manufacturer's instructions. The plates were first blocked with 150 μL of Diluent 35 for 1 hour at room temperature with constant shaking at 600 rpm. After washing three times with 200 μL washing buffer, 25 μL of 1× detection antibody solution, plus Aβ40 blocker, 25 μL of seven standards, zero standard and four-fold diluted samples were added to the assay plate. The plate was incubated for 2 hours at room temperature, with constant shaking at 600 rpm. Upon finishing, the plate was washed three times with washing buffer and read in a Sector Imager 6000 (MSD) immediately after addition of 150 μL of 2× Read Buffer T. Aβ concentrations were calculated with reference to the standard curves of each individual peptide and expressed as pg/mL using SoftMax Pro GXP 5.4.4.
# BACE1 (recombinant β-secretase enzyme), sequence (P56817 46-501): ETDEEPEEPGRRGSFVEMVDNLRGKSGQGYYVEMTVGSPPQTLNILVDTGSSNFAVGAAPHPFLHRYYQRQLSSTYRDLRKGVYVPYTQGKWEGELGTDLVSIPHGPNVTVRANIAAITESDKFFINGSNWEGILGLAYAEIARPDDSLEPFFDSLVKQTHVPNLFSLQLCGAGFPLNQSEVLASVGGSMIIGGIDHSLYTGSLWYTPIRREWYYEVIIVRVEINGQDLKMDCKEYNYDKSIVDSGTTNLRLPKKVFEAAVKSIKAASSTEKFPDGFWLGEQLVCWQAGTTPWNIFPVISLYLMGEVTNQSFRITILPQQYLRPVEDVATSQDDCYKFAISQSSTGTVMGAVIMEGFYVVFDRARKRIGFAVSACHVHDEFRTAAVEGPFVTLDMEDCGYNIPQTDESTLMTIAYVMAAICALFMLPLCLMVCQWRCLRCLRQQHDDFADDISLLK
IC50 [1] [nM],Structure (SMILES),% of maximum Aβ40 inhibition over 24 hours [2] [%]
39,"CC#Cc1ccc2sc3ccc([C@]4(C)CS(=O)(=O)C(C)(C)C(N)=N4)cc3c2c1 [Example 103, (R)-5-Amino-3,6,6-trimethyl-3-(8-(prop-1-yn-1-yl)dibenzo[b,d]thiophen-2-yl)-3,6-dihydro-2H-1,4-thiazine 1,1-dioxide]",45.9
25,"CC#Cc1ccc2sc3cc(F)c([C@]4(C)CS(=O)(=O)C(C)(C)C(=N)N4)cc3c2c1 [Example 109, (R)-5-Amino-3-(3-fluoro-8-(prop-1-yn-1-yl)dibenzo[b,d]thiophen-2-yl)-3,6,6-trim ethyl-3,6-dihydro-2H-1,4-thiazine 1,1-dioxide]",37.3
